Structures are written as SMILES.

The assay has as its system MCF-7 cells. The assay can be described thus: In vitro cell proliferation assay (WST assay). Format: cell-based. The conditions noted are these: total incubation time 72 h, viable cells by WST-1 reagent. On the procedure: In vitro Cell Proliferation Assay (WST Assay)
MCF-7 cells were seeded in 96-well plates at 3×10^3 cells/well in 100 μL of culture medium, 8 wells were left empty for media only controls.
After 24 h the compound titrations were performed, in a separate dilution plate, by serially diluting the compounds of general formula (I) in culture medium. A 100 μL of each dilution was added to the plated cells, this was done in triplicate, and controls (e.g. DMSO and blanks) were included. The plates were incubated for 24 h at 37° C. in a CO2 incubator. The compound titrations were repeated in a separate dilution plate after 24 h. The media plus compound from the assay plates were then aspirated. A 100 μL of media was then added to all wells, followed by 100 μL of each compound dilution. The plates were incubated for a further 48 h at 37° C. in a CO2 incubator (total incubation time 72 h). The number of viable cells was then assessed using Cell Proliferation Reagent WST-1. 10 μL of WST-1 reagent added to each well and incubated for one to four hours at 37° C. in CO2 incubator. The absorbance was measured (450 nm/690 nm).
The activity of compounds of general formula (I) in reducing the number of viable cells was calculated as:
% activity=[(S^c−B)/(S^o−B)]×100
S^c denotes signal measured in the presence of test compound, S^o denotes signal detected in the absence of compound, and B denotes background signal, measured in blank wells containing medium only. Analyse data using GraphPad Prism.

As a reminder, the IC50 is the midpoint of a concentration-inhibition curve. Low values mean inhibition by little substance, high ones a need for much substance. For the compound `Cc1ccc2c(c1Cl)NC(=O)C2(c1ccc(O)cc1)C1CCCCCC1` (stereo not drawn) [Compound 1053, 7-chloro-3-cycloheptyl-3-(4-hydroxyphenyl)-6-methylindolin-2-one], it took 3.5 nM to reach half-maximal inhibition (Homo sapiens, MCF7, 72 h) (IC50).

As to `Cc1ccc(C2(c3ccc(O)cc3)C(=O)Nc3c2ccc(F)c3F)cc1F` (stereo not drawn) [Compound 1023, 6,7-difluoro-3-(3-fluor-4-methylphenyl)-3-(4-hydroxyphenyl)indolin-2-one], the IC50 (Homo sapiens, MCF7, 72 h) came to 4 nM.

`Cc1ccc2c(c1C)NC(=O)C2(c1ccc(O)cc1)C1CCCCC1` (stereo not drawn) [Compound 1025, 3-cyclohexyl-3-(4-hydroxyphenyl)-6,7-dimethylindolin-2-one]: the half-inhibitory concentration (IC50) (Homo sapiens, MCF7, 72 h) came out at 25.9 nM.

`Cc1ccc2c(c1C)NC(=O)C2(c1ccc(O)cc1)C1CCCCCC1` (stereo not drawn) [Compound 1043, 3-cycloheptyl-3-(4-hydroxyphenyl)-6,7-dimethylindolin-2-one] returned an IC50 (Homo sapiens, MCF7, 72 h) of 19.1 nM.

Consider `O=C1Nc2c(ccc(F)c2F)C1(c1ccc(O)cc1)C1CCCCC1` (single isomer, unassigned) [Compound 1028, 3-cyclohexyl-6,7-difluoro-3-(4-hydroxyphenyl)indolin-2-one], for which the IC50 is above 500 nM.

`O=C1Nc2c(ccc(F)c2F)C1(c1ccc(O)cc1)C1CCCCC1` (single isomer, unassigned) [Compound 1027, 3-cyclohexyl-6,7-difluoro-3-(4-hydroxyphenyl)indolin-2-one] yielded an IC50 of 3.9 nM. That is a single-digit nanomolar value.

`O=C1Nc2c(ccc(F)c2F)C1(c1ccc(O)cc1)C1CCCCC1` (stereo not drawn) [Compound 1010, 3-cyclohexyl-6,7-difluoro-3-(4-hydroxyphenyl)indolin-2-one]: under “Homo sapiens, MCF7, 72 h”, it took 7.3 nM to reach half-maximal inhibition (IC50). This counts as single-digit nanomolar.

Compound `O=C1Nc2c(ccc(F)c2F)C1(c1ccncc1)c1ccc(O)cc1` (stereo not drawn) [Compound 1006, 6,7-difluoro-3-(4-hydroxyphenyl)-3-(pyridin-4-yl)indolin-2-one] registered a concentration for half-maximal inhibition (IC50) (Homo sapiens, MCF7, 72 h) of 34.5 nM.

For the compound `O=C1Nc2c(ccc(F)c2F)C1(c1ccc(O)cc1)c1ccc(O)cc1` [Reference compound, 6,7-Difluoro-3,3-bis-(4-hydroxy-phenyl)-1,3-dihydro-indol-2-one, reference compound], where the note is “Homo sapiens, MCF7, 72 h”, the IC50 worked out at 8.4 nM.

Turning to `Cc1ccc2c(c1F)NC(=O)C2(c1ccc(O)cc1)C1CCCCCC1` (stereo not drawn) [Compound 1034, 3-cycloheptyl-7-fluoro-3-(4-hydroxyphenyl)-6-methylindolin-2-one], for the setting “Homo sapiens, MCF7, 72 h”, 9.1 nM corresponded to half-maximal inhibition (IC50).

Compound `Cc1ccc2c(c1Br)NC(=O)C2(c1ccc(O)cc1)C1CCCCC1` (stereo not drawn) [Compound 1056, 7-bromo-3-cyclohexyl-3-(4-hydroxyphenyl)-6-methylindolin-2-one] yielded an IC50 (Homo sapiens, MCF7, 72 h) of 10.5 nM.

Where the note is “Homo sapiens, MCF7, 72 h”, `O=C1Nc2c(ccc(F)c2F)C1(c1ccc(O)cc1)C1CCCCCC1` (stereo not drawn) [Compound 1018, 3-cycloheptyl-6,7-difluoro-3-(4-hydroxyphenyl)indolin-2-one] came in with a half-inhibitory concentration (IC50) of 3.4 nM.

`COc1cc(C)c2c(c1)C(c1ccc(O)cc1)(C1CCCCC1)C(=O)N2` (stereo not drawn) [Compound 1070] showed an IC50 (Homo sapiens, MCF7, 72 h) of 10 nM.

The compound `Cc1c(F)ccc2c1NC(=O)C2(c1ccc(O)cc1)C1CCCCC1` (stereo not drawn) [Compound 1039, 3-cyclohexyl-6-fluoro-3-(4-hydroxyphenyl)-7-methylindolin-2-one] came in with a half-maximal inhibitory concentration (IC50) (Homo sapiens, MCF7, 72 h) of 5.7 nM.

Take `O=C1Nc2c(ccc(F)c2F)C1(c1ccc(O)cc1)c1ccc(F)c(F)c1` (stereo not drawn) [Compound 1022, 3-(3,4-difluorophenyl)-6,7-difluoro-3-(4-hydroxyphenyl)indolin-2-one]: where the note is “Homo sapiens, MCF7, 72 h”, the midpoint of inhibition, the IC50, lay at 5.2 nM.

`COc1ccc2c(c1C)NC(=O)C2(c1ccc(O)cc1)C1CCCCCC1` (stereo not drawn) [Compound 1087, 3-cycloheptyl-3-(4-hydroxyphenyl)-6-methoxy-7-methylindolin-2-one] registered a half-inhibitory concentration (IC50) (Homo sapiens, MCF7, 72 h) of 4.7 nM. The IC50 values of the last two compounds are within 1.5-fold of each other.

With `O=C1Nc2c(C(F)(F)F)cccc2C1(c1ccc(O)cc1)C1CCCCC1` (stereo not drawn) [Compound 1021, 3-cyclohexyl-3-(4-hydroxyphenyl)-7-(trifluoromethyl)indolin-2-one], the IC50 (Homo sapiens, MCF7, 72 h) is 17.5 nM.

`O=C1Nc2c(Br)cccc2C1(c1ccc(O)cc1)C1CCCCC1` (stereo not drawn) [Compound 1062, 7-bromo-3-cyclohexyl-3-(4-hydroxyphenyl)indolin-2-one] returned a concentration for half-maximal inhibition (IC50) (Homo sapiens, MCF7, 72 h) of 6.8 nM.

Regarding `Cc1cccc2c1NC(=O)C2(c1ccc(O)cc1)C1CCCCC1` (stereo not drawn) [Compound 1059, 3-cyclohexyl-3-(4-hydroxyphenyl)-7-methylindolin-2-one], the IC50 (Homo sapiens, MCF7, 72 h) was 32.9 nM.

Under “Homo sapiens, MCF7, 72 h”, `COc1ccc2c(c1C)NC(=O)C2(c1ccc(O)cc1)C1CCCCC1` (stereo not drawn) [Compound 1046, 3-cyclohexyl-3-(4-hydroxyphenyl)-6-methoxy-7-methylindolin-2-one] gave a half-inhibitory concentration (IC50) of 12.6 nM. This IC50 lies about 2.6-fold lower than the previous one.

Consider `O=C1Nc2c(ccc(F)c2F)C1(c1ccc(O)cc1)c1ccc2ccccc2c1` (stereo not drawn) [Compound 1033, 6,7-difluoro-3-(4-hydroxyphenyl)-3-(naphthalene-2-yl)indolin-2-one], for which the midpoint of inhibition (Homo sapiens, MCF7, 72 h), the IC50, lay at 10.2 nM.

These data come from patent US20100227863A1, “SUBSTITUTED 3-(4-HYDROXYPHENYL)-INDOLIN-2-ONE COMPOUNDS” (TOPOTARGET A/S, priority 2007, published 2010).
